Measured values from PubChem BioAssay (NCI).
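Growth conditions: 96-well plates. Treatment: test compound, 48 hours, 5 concentrations. Analysis: linear interpolation between bracketing concentrations; unreached endpoints set to highest concentration. Definition used: TGI = concentration required for complete inhibition of growth.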

Assays:
Assay in all cases: NCI tumour cell line growth inhibition, 48 h
HCC-2998 colon = tested on: HCC-2998 colon
MDA-MB-231 breast = tested on: MDA-MB-231 breast
DMS 273 small cell lung = tested on: DMS 273 small cell lung
HOP-92 NSCLC = tested on: HOP-92 NSCLC
SK-MEL-2 melanoma = tested on: SK-MEL-2 melanoma
TK-10 renal = tested on: TK-10 renal
K-562 leukemia = tested on: K-562 leukemia
U251 CNS = tested on: U251 CNS
NCI-H460 lung = tested on: NCI-H460 lung
UACC-257 melanoma = tested on: UACC-257 melanoma
RPMI-8226 leukemia = tested on: RPMI-8226 leukemia
M19-MEL melanoma = tested on: M19-MEL melanoma
M14 melanoma = tested on: M14 melanoma
OVCAR-4 ovarian = tested on: OVCAR-4 ovarian
SNB-19 CNS = tested on: SNB-19 CNS
SK-MEL-28 melanoma = tested on: SK-MEL-28 melanoma
HCT-15 colon = tested on: HCT-15 colon
OVCAR-5 ovarian = tested on: OVCAR-5 ovarian
SNB-75 CNS = tested on: SNB-75 CNS
NCI-H23 lung = tested on: NCI-H23 lung
HT29 colon = tested on: HT29 colon
MALME-3M melanoma = tested on: MALME-3M melanoma
SN12C renal = tested on: SN12C renal
SK-OV-3 ovarian = tested on: SK-OV-3 ovarian
T-47D breast = tested on: T-47D breast
A498 renal = tested on: A498 renal
SW-620 colon = tested on: SW-620 colon
UACC-62 melanoma = tested on: UACC-62 melanoma
DU-145 prostate = tested on: DU-145 prostate
SF-268 CNS = tested on: SF-268 CNS
KM20L2 colon = tested on: KM20L2 colon
OVCAR-3 ovarian = tested on: OVCAR-3 ovarian
MOLT-4 leukemia = tested on: MOLT-4 leukemia
SK-MEL-5 melanoma = tested on: SK-MEL-5 melanoma
LOX IMVI melanoma = tested on: LOX IMVI melanoma
CCRF-CEM leukemia = tested on: CCRF-CEM leukemia
LXFL 529 NSCLC = tested on: LXFL 529 NSCLC
HOP-62 NSCLC = tested on: HOP-62 NSCLC
NCI/ADR-RES ovarian = tested on: NCI/ADR-RES ovarian
786-0 renal = tested on: 786-0 renal
MDA-N = tested on: MDA-N
NCI-H226 lung = tested on: NCI-H226 lung
HS 578T breast = tested on: HS 578T breast
SF-295 CNS = tested on: SF-295 CNS
UO-31 renal = tested on: UO-31 renal
NCI-H522 lung = tested on: NCI-H522 lung
MCF7 breast = tested on: MCF7 breast
COLO 205 colon = tested on: COLO 205 colon
IGROV1 ovarian = tested on: IGROV1 ovarian
SR leukemia = tested on: SR leukemia
EKVX NSCLC = tested on: EKVX NSCLC
DLD-1 colon = tested on: DLD-1 colon
OVCAR-8 ovarian = tested on: OVCAR-8 ovarian
HCT-116 colon = tested on: HCT-116 colon
SF-539 CNS = tested on: SF-539 CNS
ACHN renal = tested on: ACHN renal
MDA-MB-435 = tested on: MDA-MB-435
DMS 114 small cell lung = tested on: DMS 114 small cell lung
BT-549 breast = tested on: BT-549 breast
CAKI-1 renal = tested on: CAKI-1 renal
RXF 393 renal = tested on: RXF 393 renal
SNB-78 CNS = tested on: SNB-78 CNS
RXF-631 renal = tested on: RXF-631 renal
KM12 colon = tested on: KM12 colon
A549 NSCLC = tested on: A549 NSCLC
HL-60(TB) leukemia = tested on: HL-60(TB) leukemia
PC-3 prostate = tested on: PC-3 prostate
XF 498 CNS = tested on: XF 498 CNS

COC1=CC(=O)c2c(ccc3ncnc(N)c23)C1=O
TGI (HCC-2998 colon): 15.1 µM | TGI (MDA-MB-231 breast): 4.8 µM | TGI (DMS 273 small cell lung): 10.7 µM | TGI (HOP-92 NSCLC): 4 µM | TGI (SK-MEL-2 melanoma): 7.08 µM | TGI (TK-10 renal): 8.75 µM | TGI (K-562 leukemia): 1.58 µM | TGI (U251 CNS): 3.39 µM | TGI (NCI-H460 lung): 12.6 µM | TGI (UACC-257 melanoma): 3.69 µM | TGI (RPMI-8226 leukemia): 3.62 µM | TGI (M19-MEL melanoma): 3.14 µM | TGI (M14 melanoma): 3.38 µM | TGI (OVCAR-4 ovarian): 1.28 µM | TGI (SNB-19 CNS): 5.47 µM | TGI (SK-MEL-28 melanoma): 4.94 µM | TGI (HCT-15 colon): 4.13 µM | TGI (OVCAR-5 ovarian): 3.81 µM | TGI (SNB-75 CNS): 6.62 µM | TGI (NCI-H23 lung): 3.76 µM | TGI (HT29 colon): 4.44 µM | TGI (MALME-3M melanoma): 5.43 µM | TGI (SN12C renal): 3.42 µM | TGI (SK-OV-3 ovarian): 16.3 µM | TGI (T-47D breast): 3.42 µM | TGI (A498 renal): 3.9 µM | TGI (SW-620 colon): 4.03 µM | TGI (UACC-62 melanoma): 3.42 µM | TGI (DU-145 prostate): 3.34 µM | TGI (SF-268 CNS): 6.72 µM | TGI (KM20L2 colon): 34.7 µM | TGI (OVCAR-3 ovarian): 3.03 µM | TGI (MOLT-4 leukemia): 1.5 µM | TGI (SK-MEL-5 melanoma): 3.12 µM | TGI (LOX IMVI melanoma): 2.68 µM | TGI (CCRF-CEM leukemia): 1.95 µM | TGI (LXFL 529 NSCLC): 3.2 µM | TGI (HOP-62 NSCLC): 6.54 µM | TGI (NCI/ADR-RES ovarian): 6.39 µM | TGI (786-0 renal): 3.35 µM | TGI (MDA-N): 0.889 µM | TGI (NCI-H226 lung): 4.6 µM | TGI (HS 578T breast): 7.52 µM | TGI (SF-295 CNS): 6.76 µM | TGI (UO-31 renal): 5.09 µM | TGI (NCI-H522 lung): 5.62 µM | TGI (MCF7 breast): 4.12 µM | TGI (COLO 205 colon): 6.77 µM | TGI (IGROV1 ovarian): 3.41 µM | TGI (SR leukemia): 0.631 µM | TGI (EKVX NSCLC): 4.03 µM | TGI (DLD-1 colon): 4.44 µM | TGI (OVCAR-8 ovarian): 7.59 µM | TGI (HCT-116 colon): 3.33 µM | TGI (SF-539 CNS): 3.41 µM | TGI (ACHN renal): 3.16 µM | TGI (MDA-MB-435): 0.646 µM | TGI (DMS 114 small cell lung): 3.43 µM | TGI (BT-549 breast): 3.2 µM | TGI (CAKI-1 renal): 3.27 µM | TGI (RXF 393 renal): 3.3 µM | TGI (SNB-78 CNS): 4.89 µM | TGI (RXF-631 renal): 16.4 µM | TGI (KM12 colon): 11.3 µM | TGI (A549 NSCLC): 8.75 µM | TGI (HL-60(TB) leukemia): 1.49 µM | TGI (PC-3 prostate): 6.53 µM

c1ccc2c(c1)c1ccccc1c1n[se]nc21
TGI (DMS 273 small cell lung): > 100 µM | TGI (SK-MEL-2 melanoma): > 100 µM | TGI (TK-10 renal): > 100 µM | TGI (K-562 leukemia): > 100 µM | TGI (U251 CNS): > 100 µM | TGI (NCI-H460 lung): > 100 µM | TGI (UACC-257 melanoma): > 100 µM | TGI (RPMI-8226 leukemia): > 100 µM | TGI (M14 melanoma): > 100 µM | TGI (OVCAR-4 ovarian): > 100 µM | TGI (SNB-19 CNS): > 100 µM | TGI (SK-MEL-28 melanoma): > 100 µM | TGI (HCT-15 colon): > 100 µM | TGI (OVCAR-5 ovarian): > 100 µM | TGI (SNB-75 CNS): 59 µM | TGI (NCI-H23 lung): > 100 µM | TGI (HT29 colon): > 100 µM | TGI (MALME-3M melanoma): > 100 µM | TGI (SN12C renal): > 100 µM | TGI (SK-OV-3 ovarian): 64.3 µM | TGI (A498 renal): 67.1 µM | TGI (SW-620 colon): > 100 µM | TGI (UACC-62 melanoma): > 100 µM | TGI (SF-268 CNS): > 100 µM | TGI (KM20L2 colon): > 100 µM | TGI (MOLT-4 leukemia): > 100 µM | TGI (SK-MEL-5 melanoma): > 100 µM | TGI (LOX IMVI melanoma): > 100 µM | TGI (CCRF-CEM leukemia): > 100 µM | TGI (LXFL 529 NSCLC): 48.6 µM | TGI (786-0 renal): > 100 µM | TGI (SF-295 CNS): > 100 µM | TGI (XF 498 CNS): 77.2 µM | TGI (UO-31 renal): > 100 µM | TGI (NCI-H522 lung): > 100 µM | TGI (COLO 205 colon): > 100 µM | TGI (IGROV1 ovarian): > 100 µM | TGI (EKVX NSCLC): > 100 µM | TGI (DLD-1 colon): > 100 µM | TGI (OVCAR-8 ovarian): > 100 µM | TGI (SF-539 CNS): 92.2 µM | TGI (ACHN renal): > 100 µM | TGI (DMS 114 small cell lung): > 100 µM | TGI (CAKI-1 renal): > 100 µM | TGI (RXF 393 renal): > 100 µM | TGI (SNB-78 CNS): > 100 µM | TGI (RXF-631 renal): > 100 µM | TGI (KM12 colon): > 100 µM | TGI (A549 NSCLC): > 100 µM | TGI (HL-60(TB) leukemia): > 100 µM
